Laboratory results published in patent US20240366594A1, “Small Molecule Inhibitors of Formation of Neutrophil-Derived Extracellular Traps (NETosis) and Uses Thereof” (The Brigham and Women's Hospital, Inc., priority 2021, published 2024).

Assays:
mouse neutrophils = test: Citrullinated histone H3 (CitH3) NET induction in PMA-stimulated mouse neutrophils; assay type: cell-based
Experimental: FIGS. 1A-H. Class I/II HDACs drive NET formation • (A and B) Freshly purified human (A) or mouse (B) neutrophils were treated with the indicated HDAC inhibitors at different doses (10, 2, 0.4, 0.08 μM), or with GSK484 (10 μM), for 1 h and then stimulated with 1 μM PMA for 3 h. Cells were fixed and stained with anti-citrullinated histone H3 (CitH3) antibody. NETosis induction was measured as the level of anti-CitH3 fluorescent signal. PMA alone represents 100% of NET induction. “-”: Cells treated with the highest dose of the indicated drug but not activated with PMA. • (C and D) Human neutrophils were treated, or not, with ricolinostat or GSK484 and then stimulated with 1 μM PMA. NETosis induction was measured as area of nuclei stained with DAPI. (C) 3D reconstruction of nuclei in each treatment (grid size 7.8 μm). (D) Quantification of DAPI signal from multiple fields of view (D) (n=9 for unstimulated, not pretreated with any drug [NT] and ricolinostat, n=7 for GSK484). • (E and F) Human neutrophils were treated as in (C-D), and immunoblot analysis of the indicated proteins was performed. Relative quantification of band intensity was analyzed with ImageJ software (F). White violins plots depict the quantification of histone H3 acetylation; red violin plots depict the quantification of histone H3 citrullination. Immunoblot in E is representative of four independent experiments. Gasdermin D NT, gasdermin D N terminal; pMLKL, phospho-MLKL. • (G) Human (left) or murine (right) neutrophils were treated, or not, with ricolinostat (10 μM) and then stimulated with 1 μM PMA for 3 h. ROS production was measured by luminescence with luminol-HRP. Histograms represent the total amount of ROS produced overtime. • (H) Murine neutrophils were treated, or not, with ricolinostat (10 μM) and then stimulated with fluorescent E. coli at the indicated multiplicity of infection (MOI) for 1 h. The histogram represents the percentage of neutrophils positive for E. coli staining. Graphs show mean±SEM. Statistics were calculated using one-way ANOVA (A, B, D) and two-way ANOVA (F, G, H) (*p<0.05; **p<0.01; ****p<0.0001. n.s., not significant). Statistics refers to the comparison with neutrophils stimulated with PMA alone (A, B). […]
FIGS. 5A-J. Class I/II HDACs drive NET formation. • A) Quantification of extracellular DNA released by neutrophils treated, or not, with 1 μM GSK484 for 1 h and then stimulated with 1 μM PMA for 4 hours. […] Extracellular DNA release was assessed in the supernatant 3 hours after PMA stimulation. […] NETosis induction was measured as level of anti-CitH3 fluorescent signal. […] NET induction was measured as in (C). […]

human neutrophils = test: Expansion of nuclei (area of DAPI-stained nuclei) in PMA-treated human neutrophils; assay type: cell-based; details: 1 μM PMA; FIGS. 1C and 1D
Experimental: FIGS. 1A-H. Class I/II HDACs drive NET formation • (A and B) Freshly purified human (A) or mouse (B) neutrophils were treated with the indicated HDAC inhibitors at different doses (10, 2, 0.4, 0.08 μM), or with GSK484 (10 μM), for 1 h and then stimulated with 1 μM PMA for 3 h. Cells were fixed and stained with anti-citrullinated histone H3 (CitH3) antibody. NETosis induction was measured as the level of anti-CitH3 fluorescent signal. PMA alone represents 100% of NET induction. “-”: Cells treated with the highest dose of the indicated drug but not activated with PMA. • (C and D) Human neutrophils were treated, or not, with ricolinostat or GSK484 and then stimulated with 1 μM PMA. NETosis induction was measured as area of nuclei stained with DAPI. (C) 3D reconstruction of nuclei in each treatment (grid size 7.8 μm). (D) Quantification of DAPI signal from multiple fields of view (D) (n=9 for unstimulated, not pretreated with any drug [NT] and ricolinostat, n=7 for GSK484). • (E and F) Human neutrophils were treated as in (C-D), and immunoblot analysis of the indicated proteins was performed. Relative quantification of band intensity was analyzed with ImageJ software (F). White violins plots depict the quantification of histone H3 acetylation; red violin plots depict the quantification of histone H3 citrullination. […] ROS production was measured by luminescence with luminol-HRP. […]

O=C(CCCCCCNC(=O)c1cnc(N(c2ccccc2)c2ccccc2)nc1)NO [ricolinostat]
release of CitH3 (NET induction) (mouse neutrophils; drugs 10, 2, 0.4, 0.08 μM for 1 h, then 1 μM PMA 3 h, FIG. 1B): efficiently decreased
NET formation (level of CitH3) (mouse neutrophils; murine neutrophils, PMA, FIG. 5J): inhibited NET formation to a comparable extent
expansion of nuclei (area of nuclei stained with DAPI) (human neutrophils): significantly reduced
